Assay results published in patent US10266548B2, “Substituted benzylindazoles for use as Bub1 kinase inhibitors in the treatment of hyperproliferative diseases” (Bayer Intellectual Property GmbH, priority 2011, dated 2019).
Like-named read-outs stand apart in the source and are kept apart here.

Tests used:
[1] = target: catalytic domain of human Bub1 (amino acids 704-1085) (Homo sapiens (Human), UniProt O43683); experiment: Bub1 kinase assay (TR-FRET); assay type: biochemical; conditions: 10 μM ATP, 1 μM peptide substrate; read-out: Biological Assay 1: Bub1 kinase assay median IC50
Outline: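 Phosphoserine product detected by TR-FRET (Eu-labeled anti-mouse IgG/anti-phosphoserine antibody to streptavidin-XL665) after 1 h at 22 °C. IC50 from 4-parameter logistic fit.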

HeLa cells = experiment: Proliferation assay (HeLa cell line); assay type: cell-based; conditions: read-out: Biological Assay 2: Proliferation assay (HeLa cell line) median IC50
Procedure: Cultivated tumor cells (cells were ordered from ATCC, except HeLa-MaTu and HeLa-MaTu-ADR, which were ordered from EPO-GmbH, Berlin) were plated at a density of 1000 to 5000 cells/well, depending on the growth rate of the respective cell line, in a 96-well multititer plate in 200 μL of their respective growth medium supplemented 10% fetal calf serum. After 24 hours, the cells of one plate (zero-point plate) were stained with crystal violet (see below), while the medium of the other plates was replaced by fresh culture medium (200 μl), to which the test substances were added in various concentrations (0 μM, as well as in the range of 0.001-10 μM; the final concentration of the solvent dimethyl sulfoxide was 0.5%). The cells were incubated for 4 days in the presence of test substances. Cell proliferation was determined by staining the cells with crystal violet: the cells were fixed by adding 20 μl/measuring point of an 11% glutaric aldehyde solution for 15 minutes at room temperature. After three washing cycles of the fixed cells with water, the plates were dried at room temperature. The cells were stained by adding 100 μl/measuring point of a 0.1% crystal violet solution (pH 3.0). After three washing cycles of the stained cells with water, the plates were dried at room temperature. The dye was dissolved by adding 100 μl/measuring point of a 10% acetic acid solution. […] The change of cell number, in percent, was calculated by normalization of the measured values to the aborbtion values of the zero-point plate (=0%) and the absorbtion of the untreated (0 μm) cells (=100%). The IC50 values were determined by means of a 4 parameter fit using the company's own software.

[2] = Homo sapiens, 96 h, 4 days, crystal violet

catalytic domain of human Bub1 (amino acids 704-1085), sequence (O43683 704-1085): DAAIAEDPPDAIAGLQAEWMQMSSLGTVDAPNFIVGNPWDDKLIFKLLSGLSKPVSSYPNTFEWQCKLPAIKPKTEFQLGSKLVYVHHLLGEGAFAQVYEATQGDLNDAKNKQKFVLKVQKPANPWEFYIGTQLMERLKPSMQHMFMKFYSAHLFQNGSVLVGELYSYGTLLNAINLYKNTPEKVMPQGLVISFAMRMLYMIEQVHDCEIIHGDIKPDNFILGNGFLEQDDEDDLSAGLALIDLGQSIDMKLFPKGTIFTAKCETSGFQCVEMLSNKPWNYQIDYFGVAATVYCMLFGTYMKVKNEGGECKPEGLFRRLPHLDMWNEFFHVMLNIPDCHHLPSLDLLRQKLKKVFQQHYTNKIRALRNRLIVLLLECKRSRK

Question: For `COc1cnc(-c2nn(Cc3cccc4c3OCCCO4)c3ccccc23)nc1Nc1ccncc1` [Example 2-6-3, 2-[1-(3,4-dihydro-2H-1,5-benzo-dioxepin-6-ylmethyl)-1H-indazol-3-yl]-5-methoxy-N-(pyridin-4-yl)pyrimidin-4-amine], which IC50 [1] is on record?
Answer: Its IC50 is 59 nM.

Question: And the IC50 (HeLa cells; Homo sapiens, 96 h)?
Answer: Its IC50 is no less than 10000 nM.

Question: How did the IC50 [1] turn out when `COc1cnc(-c2nn(Cc3c(F)cc(C4CC4)cc3F)c3ccccc23)nc1Nc1ccncc1` [Example 6-1, 2-[1-(4-cyclopropyl-2,6-difluorobenzyl)-1H-indazol-3-yl]-5-methoxy-N-(pyridin-4-yl)pyrimidin-4-amine] was run?
Answer: Its IC50 is 3.9 nM.

Question: And the IC50 (HeLa cells; [2])?
Answer: Its IC50 is 3100 nM.

Question: How did the IC50 [1] turn out when `CCOc1cc(F)c(Cn2nc(-c3ncc(OCC4(CO)COC4)c(Nc4ccncc4)n3)c3ccccc32)c(F)c1` [Example 4-1, {3-[({2-[1-(4-ethoxy-2,6-difluorobenzyl)-1H-indazol-3-yl]-4-(pyridin-4-ylamino)pyrimidin-5-yl}oxy)methyl]oxetan-3-yl}methanol] was run?
Answer: The IC50 was 2.4 nM.

Question: What about the IC50 (HeLa cells; Homo sapiens, 96 h) of the same molecule?
Answer: Its IC50 is 3500 nM.

Question: `COc1cnc(-c2nn(Cc3c(F)ccc(C)c3F)c3ccccc23)nc1Nc1ccncc1` [Example 2-48-1, 2-[1-(2,6-difluoro-3-methylbenzyl)-1H-indazol-3-yl]-5-methoxy-N-(pyridin-4-yl)pyrimidin-4-amine] was tested. Which IC50 [1] did it give?
Answer: The IC50 was 5.5 nM.

Question: What about the IC50 (HeLa cells; Homo sapiens, 96 h) of the same molecule?
Answer: Its IC50 is no less than 10000 nM.

Question: `COc1ccc(Cn2nc(-c3ncc(OC)c(Nc4ccncc4C(F)(F)F)n3)c3ccccc32)cc1` [Example 27-1, 5-methoxy-2-[1-(4-methoxybenzyl)-1H-indazol-3-yl]-N-[3-(trifluoromethyl)pyridin-4-yl]pyrimidin-4-amine] was tested. Which IC50 [1] did it give?
Answer: Its IC50 is 55 nM.

Question: What about the IC50 (HeLa cells; Homo sapiens, 96 h) of the same molecule?
Answer: Its IC50 is 3900 nM.

Question: How did the IC50 [1] turn out when `COc1cnc(-c2nn(Cc3c(F)cc(C(N)=O)cc3F)c3ccccc23)nc1Nc1ccncc1` [Example 2-50-1, 3,5-difluoro-4-({3-[5-methoxy-4-(pyridin-4-ylamino)pyrimidin-2-yl]-1H-indazol-1-yl}methyl)benzamide] was run?
Answer: The IC50 was 11 nM.

Question: What about the IC50 (HeLa cells; Homo sapiens, 96 h) of the same molecule?
Answer: The IC50 was no less than 10000 nM.

Question: For `COc1cnc(-c2nn(Cc3ccccc3F)c3ccccc23)nc1Nc1ccncc1C#N` [Example 24-1, 4-({2-[1-(2-fluorobenzyl)-1H-indazol-3-yl]-5-methoxypyrimidin-4-yl}amino)pyridine-3-carbonitrile], which IC50 [1] is on record?
Answer: Its IC50 is 62 nM.

Question: What about the IC50 (HeLa cells; [2]) of the same molecule?
Answer: Its IC50 is no less than 10000 nM.

Question: Which results are given for `CNC(=O)c1ccc(Cn2nc(-c3ncc(OC)c(Nc4ccncc4)n3)c3ccccc32)c(Cl)c1` [Example 29-2, 3-chloro-4-({3-[5-methoxy-4-(pyridin-4-ylamino)pyrimidin-2-yl]-1H-indazol-1-yl}methyl)-N-methylbenzamide]?
Answer: IC50 [1]: 8.9 nM; IC50 (HeLa cells; 4 days, crystal violet): ≥ 10000 nM

Question: `CCOc1cc(F)c(Cn2nc(-c3ncc(OC)c(Nc4ccncc4)n3)c3c(C)cccc32)c(F)c1` [Example 42-1, 2-[1-(4-ethoxy-2,6-difluorobenzyl)-4-methyl-1H-indazol-3-yl]-5-methoxy-N-(pyridin-4-yl)pyrimidin-4-amine] was tested. Which IC50 [1] did it give?
Answer: Its IC50 is 6.7 nM.

Question: And the IC50 (HeLa cells; [2])?
Answer: Its IC50 is 3600 nM.

Question: Which results are given for `COc1cnc(-c2nn(Cc3c(OCC(F)(F)F)cc(Br)cc3OCC(F)(F)F)c3ccccc23)nc1Nc1ccncc1` [Example 18-2]?
Answer: IC50 [1]: 2800 nM; IC50 (HeLa cells; 4 days, crystal violet): 3500 nM

Question: With `COc1cnc(-c2nn(Cc3c(F)cc(C(C)=O)cc3F)c3ccccc23)nc1Nc1ccncc1` [Example 7-1, 1-[3,5-difluoro-4-({3-[5-methoxy-4-(pyridin-4-ylamino)pyrimidin-2-yl]-1H-indazol-1-yl}methyl)phenyl]ethanone] as the molecule, how does the IC50 [1] read?
Answer: Its IC50 is 3 nM.

Question: And the IC50 (HeLa cells; Homo sapiens, 96 h)?
Answer: The IC50 was 4400 nM.

Question: What does the source list for `CCOc1cc(F)c(Cn2nc(-c3ncc(OCC(=O)N4CC(F)C4)c(Nc4ccncc4)n3)c3ccccc32)c(F)c1` [Example 4-21, 2-({2-[1-(4-ethoxy-2,6-difluorobenzyl)-1H-indazol-3-yl]-4-(pyridin-4-ylamino)pyrimidin-5-yl}oxy)-1-(3-fiuoroazetidin-1-yl)ethanone]?
Answer: IC50 [1]: 7.8 nM; IC50 (HeLa cells; Homo sapiens, 96 h): 3800 nM

Question: How did the IC50 [1] turn out when `COc1cnc(-c2nn(Cc3ccccc3F)c3ccccc23)nc1Nc1ccncc1C(N)=O` [Example 25-1, 4-({2-[1-(2-fluorobenzyl)-1H-indazol-3-yl]-5-methoxypyrimidin-4-yl}amino)pyridine-3-carboxamide] was run?
Answer: Its IC50 is 13 nM.

Question: What about the IC50 (HeLa cells; [2]) of the same molecule?
Answer: The IC50 was no less than 10000 nM.

Question: Which IC50 [1] does the source give for `CCOC(=O)c1cnccc1Nc1nc(-c2nn(Cc3ccccc3F)c3ccccc23)ncc1O` [Example 30-3, ethyl 4-({2-[1-(2-fluorobenzyl)-1H-indazol-3-yl]-5-hydroxypyrimidin-4-yl}amino)pyridine-3-carboxylate] here?
Answer: The IC50 was 8.4 nM.

Question: And the IC50 (HeLa cells; [2])?
Answer: The IC50 was no less than 10000 nM.

Question: For `COc1cnc(-c2nn(Cc3ccccc3F)c3ccccc23)nc1Nc1ccncc1` [Example 24-3, 2-[1-(2-fluorobenzyl)-1H-indazol-3-yl]-5-methoxy-N-(pyridin-4-yl)pyrimidin-4-amine], which IC50 [1] is on record?
Answer: Its IC50 is 13 nM.

Question: And the IC50 (HeLa cells; Homo sapiens, 96 h)?
Answer: The IC50 was 9300 nM.

Question: For `OCCOc1cnc(-c2nn(Cc3ccccc3F)c3ccccc23)nc1Nc1ccncc1` [Example 13-2, 2-({2-[1-(2-fluorobenzyl)-1H-indazol-3-yl]-4-(pyridin-4-ylamino)pyrimidin-5-yl}oxy)ethanol], which IC50 [1] is on record?
Answer: Its IC50 is 7.2 nM.

Question: What about the IC50 (HeLa cells; Homo sapiens, 96 h) of the same molecule?
Answer: The IC50 was 9600 nM.

Question: `Oc1cnc(-c2nn(Cc3ccccc3F)c3ccccc23)nc1Nc1ccncc1` [Example 3-3, 2-[1-(2-fluorobenzyl)-1H-indazol-3-yl]-4-(pyridin-4-ylamino)pyrimidin-5-ol] was tested. Which IC50 [1] did it give?
Answer: The IC50 was 15 nM.

Question: And the IC50 (HeLa cells; Homo sapiens, 96 h)?
Answer: Its IC50 is no less than 10000 nM.

Question: Which results are given for `COc1cnc(-c2nn(Cc3ccccc3F)c3ccccc23)nc1N(C)c1ccncc1` [Example 23-1, 2-[1-(2-fluorobenzyl)-1H-indazol-3-yl]-5-methoxy-N-methyl-N-(pyridin-4-yl)pyrimidin-4-amine]?
Answer: IC50 [1]: 1400 nM; IC50 (HeLa cells; [2]): ≥ 10000 nM

Question: How did the IC50 [1] turn out when `COc1cnc(-c2nn(Cc3c(Cl)ccc(C)c3F)c3ccccc23)nc1Nc1ccncc1` [Example 2-1-1, 2-[1-(6-chloro-2-fluoro-3-methylbenzyl)-1H-indazol-3-yl]-5-methoxy-N-(pyridin-4-yl)pyrimidin-4-amine] was run?
Answer: The IC50 was 2.6 nM.

Question: And the IC50 (HeLa cells; [2])?
Answer: Its IC50 is 3800 nM.

Question: For `COc1cnc(-c2nn(Cc3ccc(S(=O)(=O)N4CCOCC4)cc3)c3ccccc23)nc1Nc1ccncc1` [Example 2-43-1, 5-methoxy-2-{1-[4-(morpholin-4-ylsulfonyl)benzyl]-1H-indazol-3-yl}-N-(pyridin-4-yl)pyrimidin-4-amine], which IC50 [1] is on record?
Answer: The IC50 was 1200 nM.

Question: And the IC50 (HeLa cells; [2])?
Answer: The IC50 was no less than 10000 nM.

Question: With `CCOc1ccc(Cn2nc(-c3ncc(OC)c(Nc4ccncc4)n3)c3ccccc32)c(F)c1F` [Example 2-14-1, 2-[1-(4-ethoxy-2,3-difluorobenzyl)-1H-indazol-3-yl]-5-methoxy-N-(pyridin-4-yl)pyrimidin-4-amine] as the molecule, how does the IC50 [1] read?
Answer: Its IC50 is 8.3 nM.

Question: And the IC50 (HeLa cells; Homo sapiens, 96 h)?
Answer: Its IC50 is 4700 nM.

Question: How did the IC50 [1] turn out when `CN(C)CCOc1cnc(-c2nn(Cc3ccc(F)cc3)c3ccccc23)nc1Nc1ccncc1` [Example 4-6, 5-[2-(dimethyl-amino)ethoxy]-2-[1-(4-ftuorobenzyl)-1H-indazol-3-yl]-N-(pyridin-4-yl)pyrimidin-4-amine] was run?
Answer: Its IC50 is 29 nM.

Question: What about the IC50 (HeLa cells; Homo sapiens, 96 h) of the same molecule?
Answer: The IC50 was 3600 nM.

Question: Which results are given for `CNC(=O)c1ccc(Cn2nc(-c3ncc(OC)c(Nc4ccncc4)n3)c3ccccc32)c(Cl)c1` [Example 29-1, formic acid-3-chloro-4-({3-[5-methoxy-4-(pyridin-4-ylamino)pyrimidin-2-yl]-1H-indazol-1-yl}methyl)-N-methylbenzamide (1:1)]?
Answer: IC50 [1]: 11 nM; IC50 (HeLa cells; [2]): ≥ 10000 nM

Question: Which IC50 [1] does the source give for `COc1cnc(-c2nn(Cc3c(Cl)ccc(C(=O)N4CCOCC4)c3Cl)c3ccccc23)nc1Nc1ccncc1` [Example 20-5, [2,4-dichloro-3-({3-[5-methoxy-4-(pyridin-4-yla-mino)pyrimidin-2-yl]-1H-indazol-1-yl}methyl)phenyl] (morpholin-4-yl)methanone] here?
Answer: Its IC50 is 8800 nM.

Question: And the IC50 (HeLa cells; [2])?
Answer: The IC50 was 5900 nM.

Question: For `COc1cnc(-c2nn(Cc3c(F)cc(OC(F)F)cc3F)c3ccccc23)nc1Nc1ccncc1` [Example 2-39-1, 2-{1-[4-(difluoromethoxy)-2,6-difluorobenzyl]-1H-indazol-3-yl}-5-methoxy-N-(pyridin-4-yl)pyrimidin-4-amine], which IC50 [1] is on record?
Answer: Its IC50 is 5.6 nM.

Question: And the IC50 (HeLa cells; Homo sapiens, 96 h)?
Answer: The IC50 was 3600 nM.

Question: With `COc1cnc(-c2nn(Cc3c(Cl)ccc(CO)c3Cl)c3ccccc23)nc1Nc1ccncc1` [Example 8-1, [2,4-dichloro-3-({3-[5-methoxy-4-(pyridin-4-ylamino)pyrimidin-2-yl]-1H-indazol-1-yl}methyl)phenyl]methanol] as the molecule, how does the IC50 [1] read?
Answer: The IC50 was 7.4 nM.

Question: And the IC50 (HeLa cells; 4 days, crystal violet)?
Answer: The IC50 was 3200 nM.

Question: Which results are given for `CCOc1cc(F)c(Cn2nc(-c3ncc(OC)c(Nc4ccncc4)n3)c3ccccc32)c(OC)c1` [Example 2-53-1]?
Answer: IC50 [1]: 83 nM; IC50 (HeLa cells; 4 days, crystal violet): 3400 nM

Question: How did the IC50 [1] turn out when `COc1cnc(-c2nn(Cc3cc(F)ccc3Cl)c3ccccc23)nc1Nc1ccncc1` [Example 2-31-1, 2-[1-(2-chloro-5-fluorobenzyl)-1H-indazol-3-yl]-5-methoxy-N-(pyridin-4-yl)pyrimidin-4-amine] was run?
Answer: The IC50 was 28 nM.

Question: What about the IC50 (HeLa cells; [2]) of the same molecule?
Answer: The IC50 was no less than 10000 nM.
